Laboratory results reported in patent US9776995B2, “Bicyclic sulfonamide compounds as sodium channel inhibitors” (AMGEN INC., priority 2013, dated 2017).

Target: Nav 1.7 (Homo sapiens (Human), UniProt Q15858)
Test: in-vitro Nav 1.7 PX data
Assay type: cell-based
Settings: not given

Nav 1.7, sequence (Q15858 whole entry): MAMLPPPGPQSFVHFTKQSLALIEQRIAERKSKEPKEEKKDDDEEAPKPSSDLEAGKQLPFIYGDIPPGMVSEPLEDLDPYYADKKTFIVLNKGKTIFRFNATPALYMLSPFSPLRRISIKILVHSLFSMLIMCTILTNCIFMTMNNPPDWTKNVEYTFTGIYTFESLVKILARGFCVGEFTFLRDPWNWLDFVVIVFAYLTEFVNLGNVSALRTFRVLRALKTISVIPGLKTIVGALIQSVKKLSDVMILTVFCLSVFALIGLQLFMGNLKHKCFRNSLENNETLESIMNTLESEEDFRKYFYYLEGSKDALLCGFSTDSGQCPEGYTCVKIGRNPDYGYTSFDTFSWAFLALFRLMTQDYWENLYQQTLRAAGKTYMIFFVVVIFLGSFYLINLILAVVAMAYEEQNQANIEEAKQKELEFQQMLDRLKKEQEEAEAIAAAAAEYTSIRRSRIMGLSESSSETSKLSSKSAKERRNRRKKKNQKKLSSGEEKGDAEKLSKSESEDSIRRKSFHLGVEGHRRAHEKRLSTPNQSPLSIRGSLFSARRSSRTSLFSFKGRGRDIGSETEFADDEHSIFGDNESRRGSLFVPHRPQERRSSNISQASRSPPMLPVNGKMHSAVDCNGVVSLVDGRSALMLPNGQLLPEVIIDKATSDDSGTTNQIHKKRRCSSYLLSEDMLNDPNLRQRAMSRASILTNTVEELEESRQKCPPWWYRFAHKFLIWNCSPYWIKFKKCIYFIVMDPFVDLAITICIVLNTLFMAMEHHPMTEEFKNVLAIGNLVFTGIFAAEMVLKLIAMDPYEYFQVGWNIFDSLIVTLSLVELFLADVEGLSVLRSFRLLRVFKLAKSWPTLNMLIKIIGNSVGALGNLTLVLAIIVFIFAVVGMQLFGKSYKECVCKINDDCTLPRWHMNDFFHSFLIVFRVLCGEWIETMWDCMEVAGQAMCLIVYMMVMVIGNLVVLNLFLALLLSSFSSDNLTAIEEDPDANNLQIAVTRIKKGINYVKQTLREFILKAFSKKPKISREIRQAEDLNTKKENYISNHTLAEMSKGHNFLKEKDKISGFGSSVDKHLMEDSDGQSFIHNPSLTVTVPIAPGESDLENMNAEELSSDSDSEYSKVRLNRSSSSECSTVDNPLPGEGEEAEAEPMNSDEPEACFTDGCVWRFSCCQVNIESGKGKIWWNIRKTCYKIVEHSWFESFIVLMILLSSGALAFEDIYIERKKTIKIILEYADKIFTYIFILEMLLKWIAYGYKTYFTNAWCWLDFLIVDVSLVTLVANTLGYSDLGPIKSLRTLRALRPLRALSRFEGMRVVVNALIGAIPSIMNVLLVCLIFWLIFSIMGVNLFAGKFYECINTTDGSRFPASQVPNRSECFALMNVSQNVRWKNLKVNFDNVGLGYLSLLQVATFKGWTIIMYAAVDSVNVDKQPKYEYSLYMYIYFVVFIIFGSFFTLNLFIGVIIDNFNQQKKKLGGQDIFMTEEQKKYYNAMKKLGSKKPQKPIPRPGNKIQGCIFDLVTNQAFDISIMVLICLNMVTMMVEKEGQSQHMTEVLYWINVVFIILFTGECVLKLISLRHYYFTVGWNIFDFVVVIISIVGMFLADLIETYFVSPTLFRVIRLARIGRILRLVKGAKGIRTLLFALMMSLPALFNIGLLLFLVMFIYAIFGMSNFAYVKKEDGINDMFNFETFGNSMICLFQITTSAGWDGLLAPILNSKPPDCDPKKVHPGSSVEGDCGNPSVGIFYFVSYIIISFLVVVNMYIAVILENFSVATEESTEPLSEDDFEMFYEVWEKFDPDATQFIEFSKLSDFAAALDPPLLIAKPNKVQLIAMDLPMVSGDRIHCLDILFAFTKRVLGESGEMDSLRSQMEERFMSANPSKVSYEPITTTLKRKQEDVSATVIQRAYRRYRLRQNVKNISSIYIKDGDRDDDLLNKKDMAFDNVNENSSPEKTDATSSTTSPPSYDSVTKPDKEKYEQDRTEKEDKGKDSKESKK

Compound	IC50
COc1cc(-c2cccc(C(F)(F)F)c2)c(F)cc1-c1nncc2cc(S(=O)(=O)Nc3ccon3)ccc12 [Example 3, 1-(2-FLUORO-5-METHOXY-3′-(TRIFLUOROMETHYL)-[1,1′-BIPHENYL]-4-YL)-N-(ISOXAZOL-3-YL)PHTHALAZINE-6-SULFONAMIDE]	30.5 nM
COc1nnc(NS(=O)(=O)c2ccc3c(-c4ccc(-c5cc(F)cc(F)c5)cc4OC)nccc3c2)s1 [Example 8, 1-(3′,5′-DIFLUORO-3-METHOXY-[1,1′-BIPHENYL]-4-YL)-N-(5-METHOXY-1,3,4-THIADIAZOL-2-YL)ISOQUINOLINE-6-SULFONAMIDE]	3290 nM
O=S(=O)(Nc1ccon1)c1ccc2c(-c3ccc(-c4cccc(F)c4)cc3CO)nccc2c1 [Example 12, 1-(3′-FLUORO-3-(HYDROXYMETHYL)-[1,1′-BIPHENYL]-4-YL)-N-(ISOXAZOL-3-YL)ISOQUINOLINE-6-SULFONAMIDE 2,2,2-TRIFLUOROACETATE]	2210 nM
COc1cc(N2CC(F)(F)C2)c(C#N)cc1-c1nccc2cc(S(=O)(=O)Nc3ccon3)ccc12 [Example 23, 1-(5-CYANO-4-(3,3-DIFLUOROAZETIDIN-1-YL)-2-METHOXYPHENYL)-N-(ISOXAZOL-3-YL)ISOQUINOLINE-6-SULFONAMIDE]	988 nM
COc1cc(C(F)(F)F)ccc1-c1ncnc2cc(S(=O)(=O)Nc3ccon3)ccc12 [Example 38, N-(ISOXAZOL-3-YL)-4-(2-METHOXY-4-(TRIFLUOROMETHYL)PHENYL)QUINAZOLINE-7-SULFONAMIDE]	2570 nM

Same assay, conditions: PatchXpress (PX), in vitro

IC50	Compound
13600 nM	COc1nc(N(CC(C)C)CC(C)C)ccc1-c1nccc2cc(S(=O)(=O)Nc3ccncn3)ccc12 [Example 46, 1-(6-(DIISOBUTYLAMINO)-2-METHOXYPYRIDIN-3-YL)-N-(PYRIMIDIN-4-YL)ISOQUINOLINE-6-SULFONAMIDE]
899 nM	COc1nc(NCC(C)(C)C)ccc1-c1nccc2cc(S(=O)(=O)Nc3ccncn3)ccc12 [Example 47, 1-(2-METHOXY-6-(NEOPENTYLAMINO)PYRIDIN-3-YL)-N-(PYRIMIDIN-4-YL)ISOQUINOLINE-6-SULFONAMIDE]
1730 nM	COc1nc(OC2CCCCC2)ccc1-c1nccc2cc(S(=O)(=O)Nc3ccncn3)ccc12 [Example 65, 1-(6-(cyclohexyloxy)-2-methoxy-3-pyridinyl)-N-4-pyrimidinyl-6-isoquinolinesulfonamide]
1010 nM	COc1nc(OCC(C)(C)C)ccc1-c1nccc2cc(S(=O)(=O)Nc3ccncn3)ccc12 [Example 67, 1-(6-(2,2-dimethylpropoxy)-2-methoxy-3-pyridinyl)-N-4-pyrimidinyl-6-isoquinolinesulfonamide]
2880 nM	COc1nc(N(C)CC(C)C)ccc1-c1nccc2cc(S(=O)(=O)Nc3ccncn3)ccc12 [Example 68, 1-(2-methoxy-6-(methyl(2-methylpropyl)amino)-3-pyridinyl)-N-4-pyrimidinyl-6-isoquinolinesulfonamide]
2510 nM	COc1ccc(-c2nccc3cc(S(=O)(=O)Nc4ccncn4)ccc23)c(NCC(C)(C)C)n1 [Example 70, 1-(2-((2,2-dimethylpropyl)amino)-6-methoxy-3-pyridinyl)-N-4-pyrimidinyl-6-isoquinolinesulfonamide]
834 nM	COc1nc(N2CCC(F)(F)CC2)ccc1-c1nccc2cc(S(=O)(=O)Nc3ccncn3)ccc12 [Example 71, 1-(6-(4,4-difluoro-1-piperidinyl)-2-methoxy-3-pyridinyl)-N-4-pyrimidinyl-6-isoquinolinesulfonamide]
7710 nM	COc1nc(N2CCCC2)ccc1-c1nccc2cc(S(=O)(=O)Nc3ccncn3)ccc12 [Example 72, 1-(2-methoxy-6-(1-pyrrolidinyl)-3-pyridinyl)-N-4-pyrimidinyl-6-isoquinolinesulfonamide]
811 nM	COc1nc(NC2CCC(F)(F)CC2)ccc1-c1nccc2cc(S(=O)(=O)Nc3ccncn3)ccc12 [Example 74, 1-(6-((4,4-difluorocyclohexyl)amino)-2-methoxy-3-pyridinyl)-N-4-pyrimidinyl-6-isoquinolinesulfonamide]
727 nM	COc1nc(OC2CCC(F)(F)CC2)ccc1-c1nccc2cc(S(=O)(=O)Nc3ccncn3)ccc12 [Example 75, 1-(6-((4,4-difluorocyclohexyl)oxy)-2-methoxy-3-pyridinyl)-N-4-pyrimidinyl-6-isoquinolinesulfonamide]
178 nM	COc1cc(-c2ccc(Cl)c(C)c2)c(F)cc1-c1nccc2cc(S(=O)(=O)Nc3cccnn3)ccc12 [Example 87, 1-(4′-chloro-2-fluoro-5-methoxy-3′-methyl-4-biphenylyl)-N-3-pyridazinyl-6-isoquinolinesulfonamide]
227 nM	COc1cc(-c2ccc(Cl)c(C)c2)c(F)cc1-c1nccc2cc(S(=O)(=O)Nc3ncccn3)ccc12 [Example 88, 1-(4′-chloro-2-fluoro-5-methoxy-3′-methyl-4-biphenylyl)-N-2-pyrimidinyl-6-isoquinolinesulfonamide]
96.4 nM	COc1cc(-c2ccc(F)c(C)c2)c(F)cc1-c1nccc2cc(S(=O)(=O)Nc3ccon3)ccc12 [Example 89, 1-(2,4′-difluoro-5-methoxy-3′-methyl-4-biphenylyl)-N-3-isoxazolyl-6-isoquinolinesulfonamide]
59.5 nM	COc1cc(-c2ccc(Cl)c(C)c2)c(F)cc1-c1nccc2cc(S(=O)(=O)Nc3ccon3)ccc12 [Example 90, 1-(4′-chloro-2-fluoro-5-methoxy-3′-methyl-4-biphenylyl)-N-3-isoxazolyl-6-isoquinolinesulfonamide]
101 nM	COc1cc(-c2ccc(C)c(Cl)c2)c(F)cc1-c1nccc2cc(S(=O)(=O)Nc3ccon3)ccc12 [Example 91, 1-(3′-chloro-2-fluoro-5-methoxy-4′-methyl-4-biphenylyl)-N-3-isoxazolyl-6-isoquinolinesulfonamide]
278 nM	COc1cc(-c2cc(F)cnc2OC)c(F)cc1-c1nccc2cc(S(=O)(=O)Nc3ncccn3)ccc12 [Example 92, 1-(5-fluoro-4-(5-fluoro-2-methoxy-3-pyridinyl)-2-methoxyphenyl)-N-2-pyrimidinyl-6-isoquinolinesulfonamide]

Compound	IC50
COc1nc(Oc2ccc(F)cc2)ccc1-c1nccc2cc(S(=O)(=O)Nc3ccncn3)ccc12 [Example 45, 1-(6-(4-FLUOROPHENOXY)-2-METHOXYPYRIDIN-3-YL)-N-(PYRIMIDIN-4-YL)ISOQUINOLINE-6-SULFONAMIDE]	1510 nM

Same assay, conditions: in-vitro Nav 1.7 PX data

IC50	Compound
1600 nM	O=S(=O)(Nc1nncs1)c1ccc2c(-c3ccc(-c4cccc(F)c4)cc3CO)nccc2c1 [Example 11, 1-(3′-FLUORO-3-(HYDROXYMETHYL)-[1,1′-BIPHENYL]-4-YL)-N-(1,3,4-THIADIAZOL-2-YL)ISOQUINOLINE-6-SULFONAMIDE]
1580 nM	COc1cc(Oc2ccc(F)c(C)c2)ccc1-c1nccc2cc(S(=O)(=O)Nc3ccncn3)ccc12 [Example 29, 1-(4-(4-FLUORO-3-METHYLPHENOXY)-2-METHOXYPHENYL)-N-(PYRIMIDIN-4-YL)ISOQUINOLINE-6-SULFONAMIDE]
3300 nM	COc1cc(-c2nccc3cc(S(=O)(=O)Nc4ccon4)ccc23)c(C)cc1-c1ccc(Cl)c(C)c1 [Example 35]
5690 nM	Cc1ccc(Oc2ccccn2)cc1-c1nccc2cc(S(=O)(=O)Nc3ccncn3)ccc12 [Example 40, 1-(2-METHYL-5-(PYRIDIN-2-YLOXY)PHENYL)-N-(PYRIMIDIN-4-YL)ISOQUINOLINE-6-SULFONAMIDE]

Same assay, conditions: in-vitro PX

IC50	Compound
1360 nM	COc1cc(N2CC(F)(F)C2)c(C#N)cc1-c1nccc2cc(S(=O)(=O)Nc3nncs3)ccc12 [Example 24, 1-(5-CYANO-4-(3,3-DIFLUOROAZETIDIN-1-YL)-2-METHOXYPHENYL)-N-(1,3,4-THIADIAZOL-2-YL)ISOQUINOLINE-6-SULFONAMIDE]
1690 nM	COc1cc(-c2cccc(F)c2)ccc1C1c2ccc(S(=O)(=O)Nc3nncs3)cc2CCN1C(C)=O (stereo not drawn) [Example 52, 2-ACETYL-1-(3′-FLUORO-3-METHOXY-[1,1′-BIPHENYL]-4-YL)-N-(1,3,4-THIADIAZOL-2-YL)-1,2,3,4-TETRAHYDROISOQUINOLINE-6-SULFONAMIDE]

Same assay, conditions: in-vitro PX (PatchXpress) data

IC50	Compound
453 nM	COc1cc(-c2cc(F)cc(F)c2)ccc1-c1ccnc2cc(S(=O)(=O)Nc3nncs3)ccc12 [Example 13, 4-(3′,5′-DIFLUORO-3-METHOXY-[1,1′-BIPHENYL]-4-YL)-N-(1,3,4-THIADIAZOL-2-YL)QUINOLINE-7-SULFONAMIDE]
110 nM	COc1cc(-c2cccc(F)c2)c(Cl)cc1-c1ncnc2cc(S(=O)(=O)Nc3cccnn3)ccc12 [Example 15, 4-(2-CHLORO-3′-FLUORO-5-METHOXY-[1,1′-BIPHENYL]-4-YL)-N-(PYRIDAZIN-3-YL)QUINAZOLINE-7-SULFONAMIDE]
7.8 nM	COc1cc(-c2ccc(F)c(Cl)c2)c(Cl)cc1-c1ncnc2cc(S(=O)(=O)Nc3ccon3)ccc12 [Example 19, 4-(2,3′-DICHLORO-4′-FLUORO-5-METHOXY-[1,1′-BIPHENYL]-4-YL)-N-(ISOXAZOL-3-YL)QUINAZOLINE-7-SULFONAMIDE]
129 nM	COc1cc(Oc2cc(C)cc(F)c2)ccc1-c1nccc2cc(S(=O)(=O)Nc3nncs3)ccc12 [Example 32, 1-(4-(3-FLUORO-5-METHYLPHENOXY)-2-METHOXYPHENYL)-N-(1,3,4-THIADIAZOL-2-YL)ISOQUINOLINE-6-SULFONAMIDE]
2610 nM	COc1cc(-c2ncnc3cc(S(=O)(=O)Nc4ccon4)ccc23)c(C)cc1-c1ccc(Cl)c(C)c1 [Example 34]
744 nM	O=S(=O)(Nc1ccncn1)c1ccc2c(-c3ccc(C(F)(F)F)cc3C3CC3)ncnc2c1 [Example 36, 4-(2-CYCLOPROPYL-4-(TRIFLUOROMETHYL)-PHENYL)-N-(PYRIMIDIN-4-YL)QUINAZOLINE-7-SULFONAMIDE]

Compound	IC50
COc1cc(-c2cccc(F)c2)ccc1-c1n[nH]c(=O)c2cc(S(=O)(=O)Nc3nncs3)ccc12 [Example 18, 1-(3′-FLUORO-3-METHOXY-[1,1′-BIPHENYL]-4-YL)-4-OXO-N-(1,3,4-THIADIAZOL-2-YL)-3,4-DIHYDROPHTHALAZINE-6-SULFONAMIDE]	1420 nM

Same assay, conditions: in-vitro PX data

Compound	IC50
Cn1nccc1-c1cc(-c2cc(F)cc(F)c2)ccc1-c1nccc2cc(S(=O)(=O)Nc3ccon3)ccc12 [Example 4, 1-(3′,5′-DIFLUORO-3-(1-METHYL-1H-PYRAZOL-5-YL)-[1,1′-BIPHENYL]-4-YL)-N-(ISOXAZOL-3-YL)ISOQUINOLINE-6-SULFONAMIDE 2,2,2-TRIFLUOROACETATE]	148 nM
